Results reported in US10336732B2, “1-heterocyclyl isochromanyl compounds and analogs for treating CNS disorders” (Sunovion Pharmaceuticals Inc., priority 2015, dated 2019).

test system: mice; assay: Neuropharmacological assay (SmartCube), behavioral signature of compound-treated mice; assay type: in vivo; conditions: i.p. 15 min before behavioral test, most efficacious dose(s) of 3 doses
Procedure, shortened: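 Mice received compound i.p. in NMP/PEG/propylene glycol vehicle at 3 doses, 15 min before testing. Video-captured behavior was algorithmically compared with a reference-drug signature database.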

| Structure (SMILES) | AD: ADHD (probability that behavioral signature matches class) | AG: analgesic (probability that behavioral signature matches class) | AX: anxiolytic (probability that behavioral signature matches class) | CE: cognitive enhancer (probability that behavioral signature matches class) | DP: anti-depressant (probability that behavioral signature matches class) | HA: hallucinogen (probability that behavioral signature matches class) | MS: mood stabilizer (probability that behavioral signature matches class) | PS: anti-psychotic (probability that behavioral signature matches class) | SD: sedative hypnotic (probability that behavioral signature matches class) | UN: uncharacterized CNS activity (probability that behavioral signature matches class) |
| --- | --- | --- | --- | --- | --- | --- | --- | --- | --- | --- |
| Fc1cccc2c1[C@H]([C@@H]1CCCN1)OCC2 [Compound I-1, (S)-2-((R)-8-fluoroisochroman-1-yl)pyrrolidine] | + (LOQ ≤ + <5%) | ++ (5% ≤ ++ <25%) | ++ (5% ≤ ++ <25%) | ++ (5% ≤ ++ <25%) | ++ (5% ≤ ++ <25%) | + (LOQ ≤ + <5%) | ++ (5% ≤ ++ <25%) | +++ (25% ≤ +++ <50%) | ++ (5% ≤ ++ <25%) | ++ (5% ≤ ++ <25%) |
| Fc1ccc2c(c1)[C@H]([C@@H]1CCCN1)OCC2 [Compound I-5, (2S)-2-((R)-7-fluoroisochroman-1-yl)pyrrolidine] | + (LOQ ≤ + <5%) | ++ (5% ≤ ++ <25%) | ++ (5% ≤ ++ <25%) | ++ (5% ≤ ++ <25%) | ++ (5% ≤ ++ <25%) | + (LOQ ≤ + <5%) | ++ (5% ≤ ++ <25%) | +++ (25% ≤ +++ <50%) | + (LOQ ≤ + <5%) | +++ (25% ≤ +++ <50%) |
| Fc1ccc2c(c1)CCO[C@H]2[C@@H]1CCCN1 [Compound I-9, (S)-2-((R)-6-fluoroisochroman-1-yl)pyrrolidine] | + (LOQ ≤ + <5%) | ++ (5% ≤ ++ <25%) | ++ (5% ≤ ++ <25%) | ++ (5% ≤ ++ <25%) | ++ (5% ≤ ++ <25%) | + (LOQ ≤ + <5%) | ++ (5% ≤ ++ <25%) | +++ (25% ≤ +++ <50%) | ++ (5% ≤ ++ <25%) | +++ (25% ≤ +++ <50%) |
| Clc1ccc2c(c1)[C@H]([C@@H]1CCCN1)OCC2 [Compound I-29, (S)-2-((R)-7-chloroisochroman-1-yl)pyrrolidine] | + (LOQ ≤ + <5%) | ++ (5% ≤ ++ <25%) | +++ (25% ≤ +++ <50%) | +++ (25% ≤ +++ <50%) | ++ (5% ≤ ++ <25%) | + (LOQ ≤ + <5%) | ++ (5% ≤ ++ <25%) | ++ (5% ≤ ++ <25%) | + (LOQ ≤ + <5%) | ++ (5% ≤ ++ <25%) |
| Fc1cccc2c1[C@H]([C@@H]1CCN1)OCC2 [Compound I-83, (S)-2-((R)-8-fluoroisochroman-1-yl)azetidine] | ++ (5% ≤ ++ <25%) | ++ (5% ≤ ++ <25%) | ++ (5% ≤ ++ <25%) | +++ (25% ≤ +++ <50%) | ++ (5% ≤ ++ <25%) | + (LOQ ≤ + <5%) | ++ (5% ≤ ++ <25%) | +++ (25% ≤ +++ <50%) | + (LOQ ≤ + <5%) | + (LOQ ≤ + <5%) |
| Fc1ccc2c(c1)CCO[C@H]2[C@@H]1CCN1 [Compound I-90, (S)-2-((R)-6-fluoroisochroman-1-yl)azetidine] | + (LOQ ≤ + <5%) | ++ (5% ≤ ++ <25%) | +++ (25% ≤ +++ <50%) | ++ (5% ≤ ++ <25%) | +++ (25% ≤ +++ <50%) | + (LOQ ≤ + <5%) | + (LOQ ≤ + <5%) | ++ (5% ≤ ++ <25%) | ++ (5% ≤ ++ <25%) | ++ (5% ≤ ++ <25%) |
| Fc1cccc2c1CCO[C@@H]2[C@@H]1CCN1 [Compound I-94, (S)-2-((S)-5-fluoroisochroman-1-yl)azetidine] | + (LOQ ≤ + <5%) | ++ (5% ≤ ++ <25%) | ++ (5% ≤ ++ <25%) | ++ (5% ≤ ++ <25%) | +++ (25% ≤ +++ <50%) | + (LOQ ≤ + <5%) | + (LOQ ≤ + <5%) | +++ (25% ≤ +++ <50%) | + (LOQ ≤ + <5%) | ++ (5% ≤ ++ <25%) |
| Fc1cccc2c1CCO[C@@H]2[C@H]1CCN1 [Compound I-96, (R)-2-((S)-5-fluoroisochroman-1-yl)azetidine] | + (LOQ ≤ + <5%) | +++ (25% ≤ +++ <50%) | ++ (5% ≤ ++ <25%) | ++ (5% ≤ ++ <25%) | +++ (25% ≤ +++ <50%) | + (LOQ ≤ + <5%) | ++ (5% ≤ ++ <25%) | +++ (25% ≤ +++ <50%) | + (LOQ ≤ + <5%) | + (LOQ ≤ + <5%) |

same assay, conditions: i.p. 15 min before behavioral test, most efficacious dose(s) of 3 doses

| Structure (SMILES) | XG: anxiogenic (probability that behavioral signature matches class) |
| --- | --- |
| Fc1cccc2c1[C@H]([C@@H]1CCCN1)OCC2 [Compound I-1, (S)-2-((R)-8-fluoroisochroman-1-yl)pyrrolidine] | + (LOQ ≤ + <5%) |
| Fc1ccc2c(c1)[C@H]([C@@H]1CCCN1)OCC2 [Compound I-5, (2S)-2-((R)-7-fluoroisochroman-1-yl)pyrrolidine] | + (LOQ ≤ + <5%) |
| Fc1ccc2c(c1)CCO[C@H]2[C@@H]1CCCN1 [Compound I-9, (S)-2-((R)-6-fluoroisochroman-1-yl)pyrrolidine] | + (LOQ ≤ + <5%) |
| Clc1ccc2c(c1)[C@H]([C@@H]1CCCN1)OCC2 [Compound I-29, (S)-2-((R)-7-chloroisochroman-1-yl)pyrrolidine] | + (LOQ ≤ + <5%) |
| Fc1cccc2c1[C@H]([C@@H]1CCN1)OCC2 [Compound I-83, (S)-2-((R)-8-fluoroisochroman-1-yl)azetidine] | + (LOQ ≤ + <5%) |
| Fc1ccc2c(c1)CCO[C@H]2[C@@H]1CCN1 [Compound I-90, (S)-2-((R)-6-fluoroisochroman-1-yl)azetidine] | + (LOQ ≤ + <5%) |
| Fc1cccc2c1CCO[C@@H]2[C@@H]1CCN1 [Compound I-94, (S)-2-((S)-5-fluoroisochroman-1-yl)azetidine] | + (LOQ ≤ + <5%) |
| Fc1cccc2c1CCO[C@@H]2[C@H]1CCN1 [Compound I-96, (R)-2-((S)-5-fluoroisochroman-1-yl)azetidine] | + (LOQ ≤ + <5%) |
